Test results taken from the kinase profiling compilation of Christmann-Franck et al. (2016).
Values joined by “and” are separate entries in the source; they are usually repeats but may differ in a detail not shown here. Equal values may be shown once.

Legend:
Assay in all cases: KINOMEscan competition binding
Details in all cases: compound 10.0 µM
ABL1 (human) = ABL1 (human) (UniProt P00519)
RPS6KA1 KD1 (human) = RPS6KA1 KD1 (human) (UniProt Q15418)
STK25 (human) = STK25 (human) (UniProt O00506)
DCLK1 (human) = DCLK1 (human) (UniProt O15075)
CHEK2 (human) = CHEK2 (human) (UniProt O96017)
CAMK1 (human) = CAMK1 (human) (UniProt Q14012)
ADCK4 (human) = ADCK4 (human) (UniProt Q96D53)
[1] = system: EGFR (human), P00533 [L861Q]
MST1R (human) = MST1R (human) (UniProt Q04912)
ERBB2 (human) = ERBB2 (human) (UniProt P04626)
LTK (human) = LTK (human) (UniProt P29376)
AKT2 (human) = AKT2 (human) (UniProt P31751)
PLK1 (human) = PLK1 (human) (UniProt P53350)
RPS6KA4 KD1 (human) = RPS6KA4 KD1 (human) (UniProt O75676)
NEK7 (human) = NEK7 (human) (UniProt Q8TDX7)
FYN (human) = FYN (human) (UniProt P06241)
TNNI3K (human) = TNNI3K (human) (UniProt Q59H18)
PTK2B (human) = PTK2B (human) (UniProt Q14289)
CDK8 (human) = CDK8 (human) (UniProt P49336)
LATS1 (human) = LATS1 (human) (UniProt O95835)
WEE1 (human) = WEE1 (human) (UniProt P30291)
MAP4K5 (human) = MAP4K5 (human) (UniProt Q9Y4K4)
CSNK1A1L (human) = CSNK1A1L (human) (UniProt Q8N752)
TGFBR1 (human) = TGFBR1 (human) (UniProt P36897)
[2] = target: JAK1 JH1 catalytic (human) (UniProt P23458)
PAK3 (human) = PAK3 (human) (UniProt O75914)
MARK1 (human) = MARK1 (human) (UniProt Q9P0L2)
EPHA6 (human) = EPHA6 (human) (UniProt Q9UF33)
PKN1 (human) = PKN1 (human) (UniProt Q16512)
CAMK2A (human) = CAMK2A (human) (UniProt Q9UQM7)
CDK11B (human) = CDK11B (human) (UniProt P21127)
EPHA5 (human) = EPHA5 (human) (UniProt P54756)
SRPK1 (human) = SRPK1 (human) (UniProt Q96SB4)
CSK (human) = CSK (human) (UniProt P41240)
MAPK6 (human) = MAPK6 (human) (UniProt Q16659)
EGFR (human) = EGFR (human) (UniProt P00533)
PAK4 (human) = PAK4 (human) (UniProt O96013)
EIF2AK2 (human) = EIF2AK2 (human) (UniProt P19525)
CAMK1D (human) = CAMK1D (human) (UniProt Q8IU85)
[3] = system: EGFR (human), P00533 [P753S; 747-752 del]
ABL2 (human) = ABL2 (human) (UniProt P42684)
YES1 (human) = YES1 (human) (UniProt P07947)

Sequence of JAK1 JH1 catalytic (human) (P23458 whole entry, looked up): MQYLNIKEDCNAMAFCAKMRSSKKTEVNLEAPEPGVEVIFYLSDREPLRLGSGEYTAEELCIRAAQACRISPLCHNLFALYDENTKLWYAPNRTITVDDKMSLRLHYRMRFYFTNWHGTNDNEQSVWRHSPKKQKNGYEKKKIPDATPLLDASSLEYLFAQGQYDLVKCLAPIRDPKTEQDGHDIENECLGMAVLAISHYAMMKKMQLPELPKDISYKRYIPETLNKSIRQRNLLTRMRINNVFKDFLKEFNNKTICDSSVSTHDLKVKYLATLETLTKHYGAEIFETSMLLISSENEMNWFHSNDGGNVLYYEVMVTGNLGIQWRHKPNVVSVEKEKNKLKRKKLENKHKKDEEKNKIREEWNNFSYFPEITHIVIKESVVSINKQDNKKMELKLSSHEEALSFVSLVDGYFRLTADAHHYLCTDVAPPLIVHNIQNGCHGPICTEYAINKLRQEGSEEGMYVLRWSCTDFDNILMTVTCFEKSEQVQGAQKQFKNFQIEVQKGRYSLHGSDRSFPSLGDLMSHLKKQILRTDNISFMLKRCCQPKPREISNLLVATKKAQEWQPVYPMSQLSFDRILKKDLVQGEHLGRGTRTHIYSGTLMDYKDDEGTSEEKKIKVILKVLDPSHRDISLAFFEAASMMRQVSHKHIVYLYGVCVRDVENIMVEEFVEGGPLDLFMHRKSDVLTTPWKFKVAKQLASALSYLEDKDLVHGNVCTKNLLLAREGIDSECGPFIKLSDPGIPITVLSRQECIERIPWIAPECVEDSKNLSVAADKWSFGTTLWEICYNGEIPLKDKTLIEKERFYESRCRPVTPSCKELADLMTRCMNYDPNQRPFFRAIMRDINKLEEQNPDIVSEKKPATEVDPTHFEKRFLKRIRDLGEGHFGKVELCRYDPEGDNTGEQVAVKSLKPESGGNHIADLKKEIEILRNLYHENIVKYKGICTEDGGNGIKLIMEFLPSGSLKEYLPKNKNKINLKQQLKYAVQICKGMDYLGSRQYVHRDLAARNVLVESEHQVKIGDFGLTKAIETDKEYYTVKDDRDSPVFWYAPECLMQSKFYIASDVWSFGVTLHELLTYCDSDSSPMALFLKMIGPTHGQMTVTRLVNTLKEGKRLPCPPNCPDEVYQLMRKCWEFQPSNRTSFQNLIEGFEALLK
Sequence of LTK (human) (P29376 whole entry, looked up): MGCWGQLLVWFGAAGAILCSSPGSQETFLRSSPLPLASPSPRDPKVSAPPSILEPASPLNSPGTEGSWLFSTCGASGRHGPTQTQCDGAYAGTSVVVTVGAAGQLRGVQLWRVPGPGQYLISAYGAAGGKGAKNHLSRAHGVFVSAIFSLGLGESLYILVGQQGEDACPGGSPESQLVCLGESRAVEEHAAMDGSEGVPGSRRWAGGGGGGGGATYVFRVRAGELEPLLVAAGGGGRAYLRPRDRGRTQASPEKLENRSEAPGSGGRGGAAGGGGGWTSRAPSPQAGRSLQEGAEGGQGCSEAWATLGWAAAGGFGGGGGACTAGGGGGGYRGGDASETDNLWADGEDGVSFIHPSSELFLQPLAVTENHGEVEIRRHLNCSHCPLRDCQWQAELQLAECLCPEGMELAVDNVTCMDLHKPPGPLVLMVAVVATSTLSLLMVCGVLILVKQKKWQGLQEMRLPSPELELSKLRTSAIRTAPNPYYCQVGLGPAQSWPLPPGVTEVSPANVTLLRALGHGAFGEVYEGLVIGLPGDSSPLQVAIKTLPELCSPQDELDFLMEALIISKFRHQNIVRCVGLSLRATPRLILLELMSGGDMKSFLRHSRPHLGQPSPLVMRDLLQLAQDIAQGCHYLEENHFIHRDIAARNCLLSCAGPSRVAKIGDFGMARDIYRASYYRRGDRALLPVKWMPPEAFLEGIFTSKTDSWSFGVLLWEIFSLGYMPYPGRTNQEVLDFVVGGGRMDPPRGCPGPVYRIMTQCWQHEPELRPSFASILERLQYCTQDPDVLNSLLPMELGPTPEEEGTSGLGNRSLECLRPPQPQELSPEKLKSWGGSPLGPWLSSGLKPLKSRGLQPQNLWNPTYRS
Sequence of RPS6KA4 KD1 (human) (O75676 whole entry, looked up): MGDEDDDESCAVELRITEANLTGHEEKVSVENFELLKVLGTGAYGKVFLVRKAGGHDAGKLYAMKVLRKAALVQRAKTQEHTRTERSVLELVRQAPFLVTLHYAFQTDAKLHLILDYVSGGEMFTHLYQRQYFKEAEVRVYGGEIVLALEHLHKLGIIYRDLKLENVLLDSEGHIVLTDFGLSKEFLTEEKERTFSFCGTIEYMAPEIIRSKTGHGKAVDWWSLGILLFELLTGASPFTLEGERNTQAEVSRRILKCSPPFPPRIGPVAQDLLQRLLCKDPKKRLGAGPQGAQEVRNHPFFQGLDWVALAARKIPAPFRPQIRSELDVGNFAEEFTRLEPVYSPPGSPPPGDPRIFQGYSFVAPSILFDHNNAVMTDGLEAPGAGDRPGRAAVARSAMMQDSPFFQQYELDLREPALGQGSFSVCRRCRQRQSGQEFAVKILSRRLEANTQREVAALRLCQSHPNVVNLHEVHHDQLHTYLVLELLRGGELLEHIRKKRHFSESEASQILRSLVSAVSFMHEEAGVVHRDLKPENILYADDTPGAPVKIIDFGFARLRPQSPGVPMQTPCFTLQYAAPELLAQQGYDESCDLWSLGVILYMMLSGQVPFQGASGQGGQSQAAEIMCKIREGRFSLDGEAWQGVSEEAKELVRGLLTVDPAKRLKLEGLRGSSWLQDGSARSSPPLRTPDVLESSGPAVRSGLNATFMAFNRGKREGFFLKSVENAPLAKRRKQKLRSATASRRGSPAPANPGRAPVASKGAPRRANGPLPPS
Sequence of ADCK4 (human) (Q96D53 whole entry, looked up): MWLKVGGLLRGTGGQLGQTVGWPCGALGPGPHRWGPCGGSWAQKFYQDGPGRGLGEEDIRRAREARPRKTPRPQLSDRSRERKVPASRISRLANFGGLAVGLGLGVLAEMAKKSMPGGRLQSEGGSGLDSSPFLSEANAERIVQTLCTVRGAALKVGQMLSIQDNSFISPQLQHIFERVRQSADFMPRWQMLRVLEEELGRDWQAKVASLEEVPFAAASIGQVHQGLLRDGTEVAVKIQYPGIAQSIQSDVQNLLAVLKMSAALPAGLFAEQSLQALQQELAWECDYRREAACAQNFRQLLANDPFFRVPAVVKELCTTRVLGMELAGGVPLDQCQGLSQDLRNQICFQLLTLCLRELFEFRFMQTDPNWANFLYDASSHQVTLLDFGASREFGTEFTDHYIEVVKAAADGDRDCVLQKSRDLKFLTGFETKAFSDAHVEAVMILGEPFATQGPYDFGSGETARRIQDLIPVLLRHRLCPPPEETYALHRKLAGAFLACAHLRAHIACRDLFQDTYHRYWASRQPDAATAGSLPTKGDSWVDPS
Sequence of CAMK1 (human) (Q14012 whole entry, looked up): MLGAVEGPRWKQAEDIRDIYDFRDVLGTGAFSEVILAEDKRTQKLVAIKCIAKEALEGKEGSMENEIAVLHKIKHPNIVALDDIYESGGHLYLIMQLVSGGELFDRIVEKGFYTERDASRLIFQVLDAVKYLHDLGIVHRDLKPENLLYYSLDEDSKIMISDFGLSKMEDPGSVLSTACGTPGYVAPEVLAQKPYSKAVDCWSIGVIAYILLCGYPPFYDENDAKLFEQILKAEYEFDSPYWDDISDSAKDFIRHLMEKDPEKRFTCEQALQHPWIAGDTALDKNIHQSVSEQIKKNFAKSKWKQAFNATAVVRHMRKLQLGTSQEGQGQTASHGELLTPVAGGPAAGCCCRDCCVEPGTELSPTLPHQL
Sequence of PAK3 (human) (O75914 whole entry, looked up): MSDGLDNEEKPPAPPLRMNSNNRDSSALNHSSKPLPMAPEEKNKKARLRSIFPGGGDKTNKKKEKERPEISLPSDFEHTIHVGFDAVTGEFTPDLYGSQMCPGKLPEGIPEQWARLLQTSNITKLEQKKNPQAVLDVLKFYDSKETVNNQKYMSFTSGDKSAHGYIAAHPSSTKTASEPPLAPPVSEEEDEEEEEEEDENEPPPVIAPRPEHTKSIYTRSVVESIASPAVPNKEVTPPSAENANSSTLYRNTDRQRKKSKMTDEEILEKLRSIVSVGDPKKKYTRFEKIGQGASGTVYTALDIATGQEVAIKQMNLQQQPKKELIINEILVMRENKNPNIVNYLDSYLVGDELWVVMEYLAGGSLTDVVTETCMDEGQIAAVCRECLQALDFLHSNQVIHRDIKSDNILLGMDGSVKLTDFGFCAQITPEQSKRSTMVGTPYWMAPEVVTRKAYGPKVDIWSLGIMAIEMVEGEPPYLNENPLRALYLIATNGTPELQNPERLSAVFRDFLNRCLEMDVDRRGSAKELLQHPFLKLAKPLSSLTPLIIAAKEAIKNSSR
Sequence of EIF2AK2 (human) (P19525 whole entry, looked up): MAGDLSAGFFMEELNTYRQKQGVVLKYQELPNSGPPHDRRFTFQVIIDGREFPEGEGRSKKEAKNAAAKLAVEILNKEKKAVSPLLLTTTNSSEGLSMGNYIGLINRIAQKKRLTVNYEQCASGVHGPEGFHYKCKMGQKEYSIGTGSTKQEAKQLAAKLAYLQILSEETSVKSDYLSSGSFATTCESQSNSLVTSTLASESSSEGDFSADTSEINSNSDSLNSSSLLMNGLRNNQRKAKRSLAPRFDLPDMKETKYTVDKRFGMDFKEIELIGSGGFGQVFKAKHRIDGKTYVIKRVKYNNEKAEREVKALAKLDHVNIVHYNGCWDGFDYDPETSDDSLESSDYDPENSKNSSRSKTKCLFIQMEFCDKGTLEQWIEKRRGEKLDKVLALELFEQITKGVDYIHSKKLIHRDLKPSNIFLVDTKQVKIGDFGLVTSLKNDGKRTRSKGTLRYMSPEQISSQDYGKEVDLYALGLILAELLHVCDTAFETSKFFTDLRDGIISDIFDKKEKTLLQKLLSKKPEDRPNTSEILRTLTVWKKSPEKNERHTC

COc1cc(N2CCC(O)CC2)ccc1Nc1ncc2c(n1)N1CCc3cccc(c31)C(=O)N2C was tested, and the kinase still bound, per cent of control (ABL1 (human)) was 100%, the kinase still bound, per cent of control (RPS6KA1 KD1 (human)) was 94% and the kinase still bound, per cent of control (STK25 (human)) was 99%. The kinase still bound, per cent of control (DCLK1 (human)) was 4.5%, the kinase still bound, per cent of control (CHEK2 (human)) was 42% and the kinase still bound, per cent of control (CAMK1 (human)) was 78%. The kinase still bound, per cent of control (ADCK4 (human)) was 86%, the kinase still bound, per cent of control [1] was 64% and the kinase still bound, per cent of control (MST1R (human)) was 82%. For the same compound, the kinase still bound, per cent of control (ERBB2 (human)) was 92%, the kinase still bound, per cent of control (LTK (human)) was 100% and the kinase still bound, per cent of control (AKT2 (human)) was 100%. For the same compound, the kinase still bound, per cent of control (PLK1 (human)) was 0.2%, the kinase still bound, per cent of control (RPS6KA4 KD1 (human)) was 96% and the kinase still bound, per cent of control (NEK7 (human)) was 98%. It also gave a kinase still bound, per cent of control (FYN (human)) of 100%, a kinase still bound, per cent of control (TNNI3K (human)) of 100% and a kinase still bound, per cent of control (PTK2B (human)) of 57%. It also gave a kinase still bound, per cent of control (CDK8 (human)) of 100%, a kinase still bound, per cent of control (LATS1 (human)) of 100% and a kinase still bound, per cent of control (WEE1 (human)) of 100%. It also gave a kinase still bound, per cent of control (MAP4K5 (human)) of 99%, a kinase still bound, per cent of control (CSNK1A1L (human)) of 95% and a kinase still bound, per cent of control (TGFBR1 (human)) of 100%. It also gave a kinase still bound, per cent of control [2] of 100%, a kinase still bound, per cent of control (PAK3 (human)) of 58% and a kinase still bound, per cent of control (MARK1 (human)) of 95%. It also gave a kinase still bound, per cent of control (EPHA6 (human)) of 82%, a kinase still bound, per cent of control (PKN1 (human)) of 100% and a kinase still bound, per cent of control (CAMK2A (human)) of 80%. The kinase still bound, per cent of control (CDK11B (human)) was 100%, the kinase still bound, per cent of control (EPHA5 (human)) was 88% and the kinase still bound, per cent of control (SRPK1 (human)) was 100%. The kinase still bound, per cent of control (CSK (human)) was 90%, the kinase still bound, per cent of control (MAPK6 (human)) was 100% and the kinase still bound, per cent of control (EGFR (human)) was 59% and 83%. For the same compound, the kinase still bound, per cent of control (PAK4 (human)) was 90%, the kinase still bound, per cent of control (EIF2AK2 (human)) was 48% and the kinase still bound, per cent of control (CAMK1D (human)) was 87%. For the same compound, the kinase still bound, per cent of control [3] was 91%, the kinase still bound, per cent of control (ABL2 (human)) was 96% and the kinase still bound, per cent of control (YES1 (human)) was 99%.
